In US20240123022A1, “A STABLE ANTI-ANGIOGENIC AND ANTI-INFLAMMATORY PHARMACEUTICAL FORMULATION AND PHARMACEUTICAL COMBINATION FOR TREATMENT AND PREVENTION OF PSORIASIS” (priority 2021, published 2024):

What was measured:
[1] = Pre-formulation stability and maximum feasible concentration; type: physicochemical
Experimental: This study is important in CMC preparation of any drug. The study was conducted to develop suitable pre-formulations of IS217 for four administration routes selected for in vivo studies and to determine maximum concentration of IS217 peptide which is feasible in these pre-formulation i.e., maximum feasible concentration (MFC). Four different aqueous based pre-formulations of IS217 like 10% v/v Tween 20, 20% v/v glycerol, 10% PG v/v in 0.9% NaCl solution and 0.9% NaCl alone were prepared and were first subjected to stability study at intended use of temperature (RT) for about 24 hours. HPLC based assay method was used to evaluate the stability.
Out of these, four aqueous based pre-formulation, 0.9% NaCl solution was selected for intravenous (IV) and intraperitoneal (IP) route and also the aqueous vehicle for co-solvent pre-formulation, based on its stability and suitability at physiological conditions. For subcutaneous (SC)/intramuscular route (IM), a co-solvent-based pre-formulation was developed. 10% propylene glycol (PG) in 0.9% NaCl solution was selected as pre-formulation for SC/IM. Maximum feasible concentration of IS217 in both the pre-formulations was greater than 50 mg/ml.

[2] = tested on: EA.hy926 cells; assay: Induction of DNA fragmentation in human endothelial cell line; type: cell-based
Experimental: EA.hy926 cells, a well reported in vitro model to study the anti-angiogenic potential used for assessing apoptotic effect of IS217 through induction of DNA fragmentation. Cell conditions were maintained using DMEM, about 10% FBS, CO2 incubator and serum starved using 1% FBS. The starved cells were treated with IS217 in the concentrations of 100 μg/ml, 500 μg/ml, 1000 μg/ml, 2000 μg/ml, 5000 μg/ml and incubated for about 48 hours. Anthralin in concentrations of 0.1 μM and 0.5 μM was used as positive control.
The fragmented DNA after lysis was precipitated using PEG/NaCl solution and incubated with 0.2 μg/ml of Hoechst 33258 dye, fluorescence was read at 360 ex/460 em using Biotek synergy HT multimode reader.

[3] = tested on: Human endothelial cells (EA.hy.926); assay: Tube formation assay in EA.hy.926 cells; type: cell-based
Experimental: This assay was performed to determine ability of various compounds to promote or inhibit tube formation. Compounds that are able to inhibit tube formation could be useful in various diseases, such as cancer, where tumors stimulate new blood vessel formation to receive oxygen and nutrients in order to grow beyond a relatively small size.
Human endothelial cells (EA.hy.926) grown in DMEM and about 10% FBS were used as test system to determine angiogenic effect of IS217 by assessing inhibitory effects of test item on endothelial cells tube formation.
Prior to the tube formation assay, test item of concentration ranging 1 μg/ml, 10 μg/ml, 100 μg/ml, 500 μg/ml and 1000 μg/ml were used to treat endothelial cells for its cytotoxicity effect to assess suitable concentration for tube formation assay. The cells corresponding to positive control group were treated with paclitaxel. Anthralin was also used as positive control for in house validation.
After about 24 hours of incubation in CO2 incubator, 20 μl of 5 mg/ml of MTT was added to identify percentage cytotoxicty by biotek synergy HT plate reader. After that cells were processed for tube formation assay with selected concentrations of TI. The degree of angiogenesis progression was assessed based on visual pattern recognition of photomicrographs of EA.hy.926 cells.

[4] = target: T1, CYP1A2 (Homo sapiens, UniProt P05177); assay: in vitro; type: in vitro ADME
T1 construct: purchased
T1 sequence (P05177 whole entry): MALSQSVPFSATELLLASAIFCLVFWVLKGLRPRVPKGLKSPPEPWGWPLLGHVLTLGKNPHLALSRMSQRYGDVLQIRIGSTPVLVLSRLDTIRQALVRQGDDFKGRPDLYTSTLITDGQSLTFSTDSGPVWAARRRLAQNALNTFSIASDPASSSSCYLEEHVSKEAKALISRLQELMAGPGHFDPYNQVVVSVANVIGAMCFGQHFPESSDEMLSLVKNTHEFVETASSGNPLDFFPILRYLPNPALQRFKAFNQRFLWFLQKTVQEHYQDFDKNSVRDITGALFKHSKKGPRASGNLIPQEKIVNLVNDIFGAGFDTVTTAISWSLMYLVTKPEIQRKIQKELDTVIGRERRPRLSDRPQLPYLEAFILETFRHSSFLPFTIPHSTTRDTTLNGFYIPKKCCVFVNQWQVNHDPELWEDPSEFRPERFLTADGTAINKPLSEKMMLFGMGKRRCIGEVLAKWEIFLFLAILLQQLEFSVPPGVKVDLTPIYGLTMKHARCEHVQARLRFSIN
Experimental: (§1) The study design determined inhibition potential of test item (IS217) for CYP3A4, CYP1A2, CYP2C9, CYP2D6 and CYP2C19 using high throughput inhibitor screening kit. The experiment was performed with concentrations range of 10 μg/mL to 0.005 μg/mL of test compound IS217. Positive controls taken were specific to individual kit, which were taken as follows:
(§2) At the end of incubation period, metabolism of fluorescent substrates to their metabolites was read using fluorescent multiwall spectrophotometer (Biotek reader). Very less (<20% at 10 μg/mL) to no inhibition potential was observed towards enzymes CYP3A4, CYP2C9, CYP2D6, CYP1A2 and CYP2C19.

[5] = target: T2, CYP2D6 (Homo sapiens, UniProt P10635); assay: in vitro; type: in vitro ADME
T2 construct: purchased
T2 sequence (P10635 whole entry): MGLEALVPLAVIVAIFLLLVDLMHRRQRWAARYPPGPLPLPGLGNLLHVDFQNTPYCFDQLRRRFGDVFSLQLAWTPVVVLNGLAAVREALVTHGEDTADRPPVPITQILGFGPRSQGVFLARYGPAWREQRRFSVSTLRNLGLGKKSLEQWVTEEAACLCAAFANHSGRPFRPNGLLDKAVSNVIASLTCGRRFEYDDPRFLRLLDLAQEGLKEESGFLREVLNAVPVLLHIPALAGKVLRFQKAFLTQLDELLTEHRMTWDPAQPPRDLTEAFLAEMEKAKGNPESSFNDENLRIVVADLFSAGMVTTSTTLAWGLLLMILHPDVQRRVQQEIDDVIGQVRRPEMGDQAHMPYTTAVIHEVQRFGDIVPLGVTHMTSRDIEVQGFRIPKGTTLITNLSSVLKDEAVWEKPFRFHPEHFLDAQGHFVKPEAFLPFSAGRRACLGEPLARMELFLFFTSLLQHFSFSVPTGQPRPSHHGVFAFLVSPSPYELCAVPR
Experimental: as §1, §2

[6] = target: T3, CYP2C9 (Homo sapiens, UniProt P11712); assay: in vitro; type: in vitro ADME
T3 construct: purchased
T3 sequence (P11712 whole entry): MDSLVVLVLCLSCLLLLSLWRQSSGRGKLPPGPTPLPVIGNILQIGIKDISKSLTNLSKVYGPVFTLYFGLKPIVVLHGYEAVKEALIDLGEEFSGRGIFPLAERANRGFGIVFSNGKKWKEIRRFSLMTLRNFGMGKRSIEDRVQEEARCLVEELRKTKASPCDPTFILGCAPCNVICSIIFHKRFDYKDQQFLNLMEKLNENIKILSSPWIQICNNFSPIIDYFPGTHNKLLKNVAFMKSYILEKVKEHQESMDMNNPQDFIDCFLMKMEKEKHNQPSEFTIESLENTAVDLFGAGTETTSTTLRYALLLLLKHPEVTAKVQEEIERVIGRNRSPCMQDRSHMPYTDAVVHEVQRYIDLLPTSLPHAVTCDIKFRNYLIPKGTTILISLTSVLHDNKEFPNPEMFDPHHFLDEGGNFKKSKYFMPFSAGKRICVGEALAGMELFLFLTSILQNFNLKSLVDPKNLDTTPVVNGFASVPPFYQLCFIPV
Experimental: as §1, §2

[7] = target: T4, CYP3A4 (Homo sapiens, UniProt P08684); assay: in vitro; type: in vitro ADME
T4 construct: purchased
T4 sequence (P08684 whole entry): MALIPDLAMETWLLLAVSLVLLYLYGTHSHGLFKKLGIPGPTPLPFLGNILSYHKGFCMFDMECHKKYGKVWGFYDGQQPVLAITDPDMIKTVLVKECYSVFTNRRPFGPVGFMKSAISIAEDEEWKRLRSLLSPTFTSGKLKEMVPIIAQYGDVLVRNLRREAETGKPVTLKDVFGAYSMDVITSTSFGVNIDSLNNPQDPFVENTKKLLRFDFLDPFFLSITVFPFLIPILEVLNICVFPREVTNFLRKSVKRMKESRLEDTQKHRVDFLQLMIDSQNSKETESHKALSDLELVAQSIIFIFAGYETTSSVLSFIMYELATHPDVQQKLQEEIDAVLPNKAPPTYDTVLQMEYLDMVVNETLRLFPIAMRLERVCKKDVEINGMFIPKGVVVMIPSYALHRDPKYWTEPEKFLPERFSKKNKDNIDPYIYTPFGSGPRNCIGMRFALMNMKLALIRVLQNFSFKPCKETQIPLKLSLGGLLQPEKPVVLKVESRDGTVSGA
Experimental: as §1, §2

[8] = target: T5, CYP2C19 (Homo sapiens, UniProt P33261); assay: in vitro; type: in vitro ADME
T5 construct: purchased
T5 sequence (P33261 whole entry): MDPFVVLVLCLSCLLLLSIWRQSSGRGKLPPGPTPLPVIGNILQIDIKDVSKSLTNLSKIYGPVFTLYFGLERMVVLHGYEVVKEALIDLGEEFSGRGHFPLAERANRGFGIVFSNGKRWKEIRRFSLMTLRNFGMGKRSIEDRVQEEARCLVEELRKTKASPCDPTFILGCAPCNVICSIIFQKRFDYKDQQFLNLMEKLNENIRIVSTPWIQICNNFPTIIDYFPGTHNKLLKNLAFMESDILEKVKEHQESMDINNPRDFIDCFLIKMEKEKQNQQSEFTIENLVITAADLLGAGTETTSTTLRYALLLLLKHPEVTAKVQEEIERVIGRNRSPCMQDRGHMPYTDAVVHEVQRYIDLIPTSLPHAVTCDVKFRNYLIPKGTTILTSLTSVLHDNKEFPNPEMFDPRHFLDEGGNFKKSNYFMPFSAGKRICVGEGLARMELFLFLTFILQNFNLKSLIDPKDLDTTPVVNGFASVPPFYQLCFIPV
Experimental: as §1, §2

[9] = tested on: human endothelial cell line (EA.hy926); conditions: EA.hy926, 1-5000 μg/ml, 72 h
Experimental: Here MTT assay and BioTek Synergy HT multimode reader were used to determine the cell viability in test cells. […] Once within about 72 hours of incubation, re-treatment was done for test items at every 24 hours in 3 additions. 150 μl of DMSO was added to aspirated supernatant and observed at 540 nm using BioTek Synergy HT plate reader.

[10] = tested on: TNF-α, IFN-γ, TARC, TSLP, IL-6, IL-8, IL-23, IL-17A and IL-1-0 levels; assay: Cytokine levels in LPS stimulated RAW264.7 cells and HaCaT cells; type: cell-based; conditions: LPS stimulated RAW264.7 and HaCaT cells, vs untreated controls
From the text: In pathogenesis of psoriasis, angiogenesis and tyrosine kinases involves cell proliferation, cell migration, DNA Fragmentation and tube formation in endothelial cells. […] RAW264.7 cells (Murine macrophage cell line) which is stimulated with LPS and in HaCaT cells human keratinocytes (HaCaT) TNF-α, IFN-γ, TARC, TSLP, IL-6, IL-8, IL-23, IL-17A and IL-1-0 levels were overexpressed in disease pathogenesis, but when treated with IS217, all the above mentioned cytokines levels are decreased when compared with untreated controls.

[11] = target: T6, Topoisomerase II enzyme (Homo sapiens, UniProt P11388); assay: Topoisomerase II inhibition (kinetoplast DNA decatenation, agarose gel); type: biochemical
T6 construct: purchased TopoGen TG2000H-1
T6 sequence (P11388 whole entry): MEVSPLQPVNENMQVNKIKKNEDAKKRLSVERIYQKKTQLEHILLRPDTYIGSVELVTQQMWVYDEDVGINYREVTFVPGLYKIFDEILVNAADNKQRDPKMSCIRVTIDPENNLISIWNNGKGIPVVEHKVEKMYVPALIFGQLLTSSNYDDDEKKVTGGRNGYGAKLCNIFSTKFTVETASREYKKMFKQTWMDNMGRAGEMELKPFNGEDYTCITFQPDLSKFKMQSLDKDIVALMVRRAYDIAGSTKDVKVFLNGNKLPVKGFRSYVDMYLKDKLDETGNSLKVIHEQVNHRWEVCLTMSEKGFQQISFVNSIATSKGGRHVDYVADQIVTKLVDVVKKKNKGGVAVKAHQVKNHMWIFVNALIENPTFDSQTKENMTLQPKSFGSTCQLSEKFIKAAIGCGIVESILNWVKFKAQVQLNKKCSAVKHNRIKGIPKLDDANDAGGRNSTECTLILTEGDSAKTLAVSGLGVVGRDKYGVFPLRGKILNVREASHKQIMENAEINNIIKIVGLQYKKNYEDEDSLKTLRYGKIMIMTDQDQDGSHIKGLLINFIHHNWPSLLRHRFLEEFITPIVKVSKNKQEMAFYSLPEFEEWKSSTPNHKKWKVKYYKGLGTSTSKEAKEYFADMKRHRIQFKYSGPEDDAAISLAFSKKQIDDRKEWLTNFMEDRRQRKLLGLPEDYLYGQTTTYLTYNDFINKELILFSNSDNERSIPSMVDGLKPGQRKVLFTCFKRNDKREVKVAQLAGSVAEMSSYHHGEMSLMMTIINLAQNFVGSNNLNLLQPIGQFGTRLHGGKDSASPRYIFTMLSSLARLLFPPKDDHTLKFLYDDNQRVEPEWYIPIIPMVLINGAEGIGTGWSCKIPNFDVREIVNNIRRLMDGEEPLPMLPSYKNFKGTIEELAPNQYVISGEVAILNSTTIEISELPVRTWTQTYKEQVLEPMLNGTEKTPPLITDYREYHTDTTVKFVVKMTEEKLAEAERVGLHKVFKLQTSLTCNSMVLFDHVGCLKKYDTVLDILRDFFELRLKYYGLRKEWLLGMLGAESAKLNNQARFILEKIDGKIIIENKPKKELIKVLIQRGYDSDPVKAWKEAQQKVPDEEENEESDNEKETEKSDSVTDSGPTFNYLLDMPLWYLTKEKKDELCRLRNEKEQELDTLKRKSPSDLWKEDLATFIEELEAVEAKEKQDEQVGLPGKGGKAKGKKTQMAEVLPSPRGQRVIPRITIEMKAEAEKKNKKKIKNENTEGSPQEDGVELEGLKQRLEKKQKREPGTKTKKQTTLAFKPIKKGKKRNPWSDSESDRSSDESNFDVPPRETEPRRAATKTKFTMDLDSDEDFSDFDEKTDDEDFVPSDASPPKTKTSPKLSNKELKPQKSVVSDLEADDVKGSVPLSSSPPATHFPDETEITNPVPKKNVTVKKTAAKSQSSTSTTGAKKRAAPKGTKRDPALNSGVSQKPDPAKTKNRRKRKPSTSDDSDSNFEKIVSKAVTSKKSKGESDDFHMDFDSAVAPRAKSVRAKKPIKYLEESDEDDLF
Experimental: Topoisomerase II inhibitory potential of IS217 was evaluated using widely reported kinetoplast DNA as test system in presence of Topoisomerase II enzyme. IS217 was tested at concentrations ranging from 0.01 μg/ml to 1 mg/ml. Doxorubucin hydrochloride and nalidixic acid were used as positive controls at the concentration of 10 μM and 1 mg/ml, respectively.
Inhibition of release of decatenated KDNA products was used as a specific marker to assess the inhibitory activity of IS217 on topoisomerase II enzyme, which was determined by using 1% agarose gel electrophoresis.

H-FAKKFAKKFK-OH [IS217, H-Phe-Ala-Lys-Lys-Phe-Ala-Lys-Lys-Phe-Lys-OH]
Maximum feasible concentration ([1]; 0.9% NaCl solution (IV, IP pre-formulation)): greater than 50 mg/ml | Maximum feasible concentration ([1]; 10% propylene glycol in 0.9% NaCl solution (SC/IM pre-formulation)): greater than 50 mg/ml | physical appearance of pre-formulations ([1]; four aqueous pre-formulations, RT, 24 hours): no visual changes | induction of DNA fragmentation ([2]; EA.hy926, 1000 μg/ml, 48 h): 24.53% | percentage of induction of DNA fragmentation ([2]; EA.hy926, 2000 μg/ml and 5000 μg/ml): significant decrease | inhibition of endothelial morphogenesis on matrigel ([3]; Ea.hy.926, 500 μg/ml): Complete inhibition | endothelial tube formation ([3]; Ea.hy.926, all test concentrations 1 μg/ml to 1000 μg/ml): block endothelial tube formation | inhibition at 10 μg/mL [4]: < 20% | inhibition potential towards CYP1A2 as compared to others [4]: slightly higher potential | inhibition at 10 μg/mL [5]: < 20% | inhibition at 10 μg/mL [6]: < 20% | inhibition at 10 μg/mL [7]: < 20% | inhibition at 10 μg/mL [8]: < 20% | percentage inhibition of FBS induced proliferation of endothelial cells [9]: effective upto 2000 μg/ml only | cytokines levels (TNF-α, IFN-γ, TARC, TSLP, IL-6, IL-8, IL-23, IL-17A, IL-1-0) [10]: decreased | topoisomerase II enzyme inhibition ([11]; 0.01 μg/ml to 10 μg/ml): no topoisomerase II enzyme inhibition | topoisomerase II enzyme inhibition ([11]; 100 μg/ml): some extent of inhibition | topoisomerase II enzyme inhibition ([11]; 1 mg/ml, highest tested concentration): better inhibition
